Test results from US12642838B2, “Method of modulating sensitivity to tyrosine kinase inhibitor” (SINGAPORE HEALTH SERVICES PTE LTD, priority 2020, dated 2026).

Tests used:
NCC-HN1 cells = experiment: Cell proliferation assay (CellTitre-Glo), TKI and EV co-treatment, NCC-HN1; assay type: cell-based, human
Description: Extracellular vesicle (EV) collection and isolation were carried out as previously described*. Briefly, cells were grown in T-175 tissue culture flasks with conditioning medium (NCM). After 72 hours incubation, the NCM was collected and spun down at 1,200 rpm for 10 minutes to remove cell debris. The supernatant was then filtered through a 0.22 um filter (PES) and the filtrate was loaded into Amicon® Ultra-15 Centrifugal Filter Unit (Merck Millipore, Kenilworth, NJ). The medium was concentrated and subjected to a final wash with 1×PBS before reconstituting to 1/60 of the original volume. To reduce extracellular vesicle batch variation, every five extracellular vesicle batches were pooled into a single batch for analysis and treatment. *Reference: Rodrigues-Junior, D. M. et al. Circulating extracellular vesicle-associated TGFβ3 modulates response to cytotoxic therapy in head and neck squamous cell carcinoma. Carcinogenesis 1-13 (2019). doi:10.1093/carcin/bgz148
Cells were seeded in 100 μl complete growth medium at a density of 1,000-3,000 cells/well in 96-well tissue culture plates. Cells were washed with 1×PBS to remove remaining medium residue prior treatment. […] Plates were incubated for 72 hours at 37° C. after which cell viability was assessed using CellTitre-Glo® Luminescent Assay according to the manufacturer's protocol (Promega, Madison, WI).

[1] = Mouse body weight after afatinib and EV co-treatment; assay type: in vivo; settings: daily oral afatinib with 72-hourly peri-tumoural EV injection
Description: Arrow indicates commencement of daily oral afatinib administration with 72-hourly peri-tumoural extracellular vesicle (EV) injection. This confirms that the therapy delivered to the mice in FIG. 25 had minimal side effects/toxicity during the course of the experiment.

[2] = system: NCC-HN1, NCC-HN120M and NCC-HN182M cells; experiment: Cell proliferation assay and IC50 determination, TKI and EV co-treatment, HNSCC cell line panel; assay type: cell-based, human
Description: To test the response of head and neck squamous cell carcinomas (HNSCC) cell lines to tyrosine kinase inhibitors (TKIs) in the presence of EGFR exosomal isoform D, three primary cell lines, namely NCC-HN1, NCC-HN120M and NCC-HN182M, were used. […] NCC-HN1, NCC-HN120M and NCC-HN182M cells were treated with eight tyrosine kinase inhibitors, each individually, in the presence of exosome (EV) derived from NCC-HN19 and NCC-HN137P cells.
Cells were seeded in 100 μl complete growth medium at a density of 1,000-3,000 cells/well in 96-well tissue culture plates. […] Plates were incubated for 72 hours at 37° C. after which cell viability was assessed using CellTitre-Glo® Luminescent Assay according to the manufacturer's protocol (Promega, Madison, WI).

## O=C1NC(=NS(=O)(=O)c2cccc3ccccc23)S/C1=C\c1ccc(Br)cc1 [PitStop2]
NCC-HN1 cells; 1 μM PS2 with 293T pBob-IsoD EV
  effect on the sensitising effect of isoform D containing EVs: reduces the sensitising effect of isoform D containing EVs

## CN(C)C/C=C/C(=O)Nc1cc2c(Nc3ccc(F)c(Cl)c3)ncnc2cc1O[C@H]1CCOC1 [afatinib]
[1]
  mouse body weight: no changes in mouse body weight

## COc1cc2ncnc(Nc3ccc(F)c(Cl)c3)c2cc1NC(=O)/C=C/CN1CCCCC1 [dacomitinib]
[2]; EV from 293T, FIG. 11H (NCC-HN1 and NCC-HN120M)
  sensitivity of HNSCC cells to the TKI on co-treatment with exosomes containing overexpressed EGFR isoform D: sensitized
[2]; EV from HN19 and HN137P applied to HN1, HN120M, HN182M
  sensitivity of TKI-resistant cells to the TKI on application of EVs from sensitive cells: sensitises these resistant cells

## COc1cc2ncnc(Nc3ccc(F)c(Cl)c3)c2cc1OCCCN1CCOCC1 [gefitinib]
NCC-HN1 cells; no exosome treatment
  response of cells to TKI without exosome: normally resistant
